6 compounds from patent US20240343699A1, “DERIVATIVES OF SUBSTITUTED MORPHOLINES AND USES THEREOF” (Supernus Pharmaceuticals, Inc., priority 2023, published 2024) can be followed below.

pEC50: −log10 of the molar value. Counter-ions that a name gives are not always drawn.

In one data set the test system is cognitive flexibility. Briefly: Operant set-shifting test against PCP. It is filed as in vivo, male Wistar rats. As for the experimental part:
This assay serves as a model of impaired executive function associated with neuropsychiatric disorders like schizophrenia. The aim of this study was to evaluate COMPOUND C to reverse deficits observed with PCP on cognitive flexibility using the operant set-shifting test in the rat.
Substances & Formulation.
Doses were prepared by separate weighing (W/V). COMPOUND C formulations were prepared fresh on each dosing day and dosing was completed within 8 hours of formulation. Phencyclidine (PCP) hydrochloride, white powder, was dissolved in physiological saline by magnetic stirring, fresh each day of dosing.
Test System. 78 male Wistar rats were supplied for this study. • 72 rats, 8-9 weeks old, weighing 218-299 g at the beginning of the visual discrimination were submitted to the entire behavioral testing and assigned to match groups based on their performance during the second visual discrimination session. • 6 spare rats were submitted to lever pressing, side bias and visual discrimination but were discarded for the testing period (set-shift and reversal)
The experimental protocol which detects effects on behavioral flexibility follows that described by Floresco et al. (Behav. Brain Res., 190, 85-96 (2008)).
Apparatus. The apparatus consists of standard Med Associates ENV-008 Skinner boxes (30×25×30 cm) fitted with a house light, two retractable levers and a food pellet dispenser. The levers are located on either side of the food receptacle connected to the pellet dispenser. A light emitting diode stimulus light is positioned centrally above each lever and served as a stimulus for visual-cue discrimination learning.
Acquisition of lever-pressing (training). The aim of this phase was to train animals to lever-press to receive a food pellet reward.
Side bias. On the last day of training, the side bias for the rat was determined. The session was similar to the lever pressing session except that both levers were inserted into the chamber together (i.e. 90 levers presentations every 20 seconds). Again, the stimulus lights above each of the levers were not illuminated during this training session. On the first levers presentation, a food pellet was delivered after responding on either lever. Upon subsequent insertion of the levers, food was delivered only if the rat responded on the lever opposite to the one chosen initially. If the rat chose the same lever to the initial choice, no food was delivered. This continued until the rat chose the lever opposite to the one chosen initially. After choosing both levers, a new trial commenced. Thus, one trial for the side bias procedure consisted of responded on both levers. The sessions terminated after 90 levers presentations or after completion of 21 trials.
Visual-cue discrimination learning. After determining the side bias, animals were submitted to visual-cue discrimination learning.
A session began with both levers retracted and the chamber in darkness (the inter-trial state). Every 20 seconds, a trial began with illumination of one of the stimulus lights above one of the levers. 3 seconds later, the house light was illuminated, and both levers were inserted into the chamber. […] After food delivery, the house light remained on for another 4 seconds, after which the chamber returned to the inter-trial state. If the rat responded on the other lever (incorrect response), both levers retracted immediately without food delivery and the chamber reverted to the inter-trial state.

Another data set concerns rat red blood cells. The data set can be described thus: Hemolysis in rat blood. It is filed as cell-based. The following applies: rat blood, 60 min exposure; read-out: EC50 (% RBC lysis). As for the experimental part: Stability of Test Articles at Different pH Values. 10 mM stock solutions of COMPOUND A were prepared in DMSO. From this stock solution, a single concentration in a 10 μL aliquot was added to three fluid matrices: SGF at pH 2.0 (gastric), SIF at pH 6.0 (upper intestine), and PBS at 7.4 (systemic). The final volume was 1 mL (0.1 mM). The preparations were then incubated at 37° C. and samples were collected at 0, 15, 30, 60, and 120 min for analysis of parent material by LC/MS/MS. The collected sample was quenched in acetonitrile/0.1% formic acid mixture. Red Blood Cell (RBC): Human and rat blood were centrifuged to separate out red blood cells at […] for 15 min. The upper plasma level was aspirated with a micropipette and placed in a bleach solution for disposal. The RBC pellet was resuspended in sterile isotonic saline. The pellet was gently resuspended by rocking the tube. The sample was then centrifuged again to collect the RBC pellet and then resuspended and washed one more time following the same procedure. A total of three was done. Following the last wash and centrifugation, the RBCs were resuspended with PBS; and mixed by inversion. Aliquots of the resuspended and washed RBCs were then placed into 4 reaction tubes. These tubes were centrifuged to collect the RBCs. The fluid level was marked on each tube, then the supernatant was aspirated off and the cells resuspended with room temperature PBS pH 7.4 to the original mark. An aliquot of the RBC suspension was added to four sterile tubes containing PBS pH 7.4 at room temperature.
Stability in Human and Rat Red Blood cells and Hemolysis. […] After centrifugation, 70 μL of supernatant (without disturbing the pellet) was transferred to a clean and clear polystyrene flat bottomed 96-well plate and the absorbance of the sample at a single wavelength was measured using a Bio Tech Synergy Hl Plate Reader at a wavelength of 410 nm. […] Stability was measured by measuring loss of parent compound using LC/MS/MS.

Data set [1] has as its system recognition memory. Briefly: Spontaneous novel object recognition (NOR), 48 hr retention interval. Type of data set: in vivo, male Wistar rats. Particulars: donepezil 2.0 mg/kg i.p., 48 hr delay.
A further data set deals with immobility. The data set can be described thus: Tail suspension test (TST). The following applies: imipramine 15 mg/kg IP, vs vehicle (p=0.01).
For data set [2], the system named is recognition memory. Briefly: Novel object recognition, scopolamine-impairment model, 3 hr retention interval.
[3] abbreviates: PCP 2 mg/kg s.c., first reversal session.
Where [4] appears, read: PCP 2 mg/kg s.c., first set-shift session.
The mark [5] stands for this setting: PCP 2 mg/kg s.c., first set-shift to response discrimination session.

The term pEC50 denotes the negative decadic logarithm of the EC50, by convention in mol/L.

Description for immobility: The tail suspension test is an experimental method used in scientific research to measure a state of being helpless in rodents, especially in mice. It is based on the observation that if a mouse is subjected to short term inescapable stress then the mouse will stop struggling. Immobility is quantified by measuring the amount of time lacking whole body activity.
The immobilized time in the last 4 min of the TST, which indicated depression-like behavior, was quantified using offline video manual scoring in a blinded manner.
Animals. Adult (7 to 8 weeks) male mice (C57Bl/6, Charles River Laboratories) were used in the study. Upon arrival, animals were group-housed (5/cage) with access to food and water ad libitum. Animals were maintained on a 12/12-hour light/dark cycle in a temperature—(22±2° C.) and humidity—(approx. 50%) controlled room. Animals were numbered consecutively by tail marks. Each cage was identified by a card indicating the study number, sex, animal numbers and date of birth.
Test article formulations were prepared fresh based on weight-to-volume in the vehicle on each dosing day. […] The appearance of the formulations was clear, with no precipitations. […] A vehicle group was included for comparison.
Monitoring. A piezoelectric sensor operated by the SmartCage system was utilized and video recording was conducted for scoring. After animals acclimated to the testing room, an individual mouse's tail was placed onto the piezoelectric sensor-board and the mouse was hung upside down, which signaled the immediate start of the recording of struggle activity, and it lasted for 6 min. The mouse was then taken off and returned to the home cage. The immobilized time, indicating depression-like behavior, was quantified using manual scoring of the video recordings for the period from 120 seconds to 360 seconds during TST. The percent immobility time was calculated: (immobility time/240 seconds)*100.
The immobilized time in the last 4 min of the TST, which indicates depression-like behavior, was quantified using offline video manual scoring in a blinded manner.
Animals. Adult (8 weeks, approximately 20-25 g) male mice (C57Bl/6, Vendor: Charles River Laboratories) were used in the study. Upon arrival, animals were group-housed (5/cage) with access to food and water ad libitum. Animals were maintained on a 12/12-hour light/dark cycle in a temperature—(22±2° C.) and humidity—(35-50%) controlled room. Animals were numbered consecutively by tail ID. Each cage was identified by a colored card indicating the study number, sex, animal numbers and date of birth.
Test article formulations were prepared fresh based on weight-to-volume in the vehicle on dosing day. […] The appearance of the formulations was clear, with no precipitations.
The tail suspension test is an experimental method used in scientific research to measure a state of being helpless in rodents, especially in mice. It is based on the observation that if a mouse is subjected to short term inescapable stress then the mice will give up struggling. “Immobility” is quantified by measuring the amount of time during which the animal has no whole-body activity.
Tail Suspension Test (TST). A piezoelectric sensor operated by the SmartCage system was utilized and video recording was conducted for scoring. Once animals were acclimated to the testing room, the TST was initiated by placing the tail of the test mouse onto the piezoelectric sensor-board and hanging the mouse upside down. The recording period was initiated once the mouse was upside down and lasted for 6 min. After the recording period, the mouse was removed from the recording device and returned to its home cage.

Take `c1ccc(C2(N3CCCCC3)CCCCC2)cc1` [PCP, Phencyclidine (PCP) hydrochloride]: in the data set on cognitive flexibility (setting [3]), the “number of errors vs saline controls” value is reported as “+66%” and the “number of trials to reach the criterion vs saline controls” value is “+35%”. In the data set on cognitive flexibility (setting [4]), the “perseverative errors (average)” value was found to be 35.8 and the “total errors (average)” value came to 37.8. In the data set on cognitive flexibility (setting [5]), the “number of errors vs saline controls” value is “+47%” and the “number of trials to reach the criterion vs saline controls” value is reported as “+45%”. In the data set with cognitive flexibility (PCP, second session (drug-free)), the “number of trials vs saline controls” value is “+31%”.
As to `C[C@@H]1[C@H](O)[C@@H](C)/C=C/C=C/C=C/C=C/C=C/C=C/C=C/[C@H](O[C@@H]2O[C@H](C)[C@@H](O)[C@H](N)[C@@H]2O)C[C@@H]2O[C@](O)(C[C@@H](O)C[C@@H](O)[C@H](O)CC[C@@H](O)C[C@@H](O)CC(=O)O[C@H]1C)C[C@H](O)[C@H]2C(=O)O` [amphotericin B, reference compound], in the data set with rat red blood cells, the negative logarithm of the EC50 (pEC50) is 5.33.
Turning to `COc1cc2c(cc1OC)C(=O)C(CC1CCN(Cc3ccccc3)CC1)C2` (stereo not shown) [donepezil, reference compound], in the data set with recognition memory [1], the “preference for the novel object (exploration times)” value is “significant preference for the novel object”.
Regarding `CN(C)CCCN1c2ccccc2CCc2ccccc21` [imipramine, reference compound], the percent immobility time entry with immobility is “significantly reduced immobility time”.
On to `CN1[C@@H]2C[C@@H](OC(=O)[C@H](CO)c3ccccc3)C[C@H]1[C@@H]1O[C@@H]12` [scopolamine, (−)-scopolamine hydrobromide], for which the “d2 ratios vs vehicle-controls” value in the data set on recognition memory [2] (vehicle-scopolamine 0.2 mg/kg i.p.) was “significantly impaired compared to the vehicle-controls”.
In the case of `Cc1ccc(Sc2ccccc2N2CCNCC2)c(C)c1` [vortioxetine], the “memory enhancement (attenuation of the scopolamine impairment)” value with recognition memory [2] (vortioxetine 10 mg/kg s.c. + scopolamine 0.2 mg/kg i.p., 3 hr delay) is given as “not associated with significant memory enhancement”. Further, the adverse reactions result in the data set with recognition memory [2] (vortioxetine-scopolamine combination, three of the twelve rats, A/A session) is recorded as “adverse reactions during the A/A session (thigmotaxis, vocalizations, labored breathing)”.
